Data on 4 compounds can be found in patent US6878522B2, “Methods for the identification of compounds useful for the treatment of disease states mediated by prostaglandin D2” (priority 2000, dated 2005).

Molecules are shown by their SMILES. Where only a bound is given, the exact number is not on record here.

Experiment [1] has as its system isolated human eosinophils. The experiment is described as follows: Chemotaxis of isolated human eosinophils. The format is cell-based. The procedure: In a specific example of this method, a competitive assay is performed to test compounds for their ability to interrupt the attraction of CRTH2 cells to PGD2. In this method, test compounds are diluted into the bottom wells of the Boyden chemotaxis chamber. A constant amount of PGD2 is also added to this dilution series, at a concentration known to have a chemotactic effect on CRTH2 cells. As a control, at least one aliquot contains only PGD2. Cells expressing CRTH2 are resuspended at 3-3.5×10^6 cells/ml in RPMI 1640 supplemented with 10 mM HEPES and 1 mg/ml bovine serum albumin (Sigma, St. Louis, Mo.), and placed into the upper wells of the chamber. The chambers are incubated for 90-120 minutes at 37° C. in a humidified CO2 incubator. After the incubation period, the number of migrating cells on the lower surface of the membrane filter is counted using light microscopy. The contribution of the test compound to the chemotactic activity of PGD2 is measured by comparing the chemotactic activity of the aliquots containing only PGD2 with the activity of aliquots containing test compound and PGD2. If addition of the test compound to the PGD2 solution results in a […] in the number of cells detected on the lower surface of the membrane relative to the number of cells detected using a solution containing only PGD2, then there is identified an antagonist of PGD2 induction of chemotactic activity of cells expressing CRTH2. In contrast, if the addition of the test compound to the PGD2 solution results in a […] in the number of cells detected on the lower surface of the membrane (relative to the number of cells detected using a solution containing only PGD2), then an […] of PGD2 induction of chemotactic activity of cells expressing CRTH2 is identified.
(§1) The chemotactic response of human T lymphocytes to PGD2, murine MDC and murine mSDF was also assayed. Chemotaxis was determined using a 48-well Boyden chamber (Neuroprobe, Cabin John, Md.), and 3.0 μm polycarbonate filters. Cells were resuspended (3-3.5×10^6 cells/ml) in RPMI 1640 supplemented with 10 mM HEPES and 1 mg/ml bovine serum albumin (Sigma, St. Louis, Mo.), and placed into the upper wells of the chamber. The compound to be tested was placed in the lower wells. The chambers were incubated for 90-120 minutes at 37° C. in a humidified CO2 incubator. At the end of the incubation period, the number of migrating cells on the filter (expressed per high power field) were enumerated microscopically. […] In FIG. 4, the chemotactic response of human basophils to PGD2 and C5a is shown.

Experiment [2] relates to guinea pig eyes. Particulars: topical, cited from earlier work; for microvascular leakage followed by conjunctival inflammation: 6-hour post challenge.
Experiment [3] deals with T1, DP receptor (Homo sapiens, UniProt Q13258).
T1 sequence (Q13258 1-359): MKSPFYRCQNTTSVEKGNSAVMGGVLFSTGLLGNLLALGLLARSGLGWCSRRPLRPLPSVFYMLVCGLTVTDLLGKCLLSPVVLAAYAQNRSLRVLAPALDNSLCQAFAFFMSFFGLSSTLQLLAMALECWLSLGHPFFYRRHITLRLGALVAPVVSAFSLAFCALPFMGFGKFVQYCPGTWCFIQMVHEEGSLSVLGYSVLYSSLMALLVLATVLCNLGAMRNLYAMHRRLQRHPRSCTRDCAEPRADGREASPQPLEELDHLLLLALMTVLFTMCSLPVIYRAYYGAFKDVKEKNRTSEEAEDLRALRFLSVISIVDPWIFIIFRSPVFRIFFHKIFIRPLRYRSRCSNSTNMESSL
Description: Competition with 3H-PGD2 binding at the DP receptor (Examples 6-9). The conditions noted are these: control, cold PGD2, 7 trials. The procedure:
To directly determine the binding affinity of CRTH2 for PGD2, the following binding assay was used. Transfected and parental 300-19 cells were washed twice at room temperature with assay buffer, and resuspended at a concentration of 2×10^7 cells/ml. Using a 96-well U-bottom polypropylene plate (Costar, Corning Inc., Acton, Mass.), the assay was set up as follows: 50 μl of vehicle (0.3% DMSO in assay buffer, total wells) or of […] cold PGD2 (NS wells); 50 μl cells (2×10^7 cells/ml for 10^6 cells per well); 50 μl 6 nM [3H]-PGD2. The plate was allowed to incubate for 20 min at RT before centrifugation (2800 rpm, Sorval RT6000, 5 min, 4° C.). The plate was harvested (Packard Unifilter plate GF/C, previously soaked in 3% PEI for at least 1 hr) with cold assay buffer using a Packard Filtermate Cell Harvester (6×150 μl buffer wash per well). The filterplate was dried overnight. After the addition of 50 μl scintillation fluid (Packard Microscint 0), the plate was counted in a Packard Topcount scintillation counter (1 min per well). […]
In the assay, the capacity of each D-ring compound to compete with binding of ^3H-PGD2 was measured at both the CRTH2 and DP receptors, and an IC50 value (in μM) was determined. […]

The subject of experiment [4] is human basophils. The experiment is described as follows: Chemotaxis of human basophils. The format is cell-based. The procedure: as §1
For experiment [5] the following is noted: inhaled, asthmatics; cited from earlier work.

Take `O=C(O)CCCCCCC1C(=O)NC(=O)N1CCC(O)C1CCCCC1` (stereo not drawn) [BW-245C]: the EC50 in experiment [1] was above 1 µM. In addition, in experiment [2], the “microvascular leakage followed by conjunctival inflammation” value was “BW-245C-insensitive” and the ocular hypotension result is recorded as “mimicked by BW-245C”.

In experiment [1], `CCCCC[C@H](O)/C=C/[C@H]1C(=O)C[C@H](O)[C@@H]1C/C=C\CCCC(=O)O` [PGD2, prostaglandin D2] showed an EC50 of 0.003 µM. This compound had an IC50 in experiment [3] of 0.0234 µM. Also, the “chemotactic response of human basophils” value in experiment [4] is “responsive to PGD2”. Besides, in experiment [5], the “bronchoconstriction potency relative to PGF2α” value is 3.5 × and the “bronchoconstriction potency relative to histamine” value is given as 30 ×. Besides, in experiment [2], the “microvascular leakage followed by conjunctival inflammation” value is “microvascular leakage followed by conjunctival inflammation” and the ocular hypotension result is on record as “elicits ocular hypotension”.

With `CCCCC[C@H](O)/C=C/[C@H]1[C@H](O)CC(=O)[C@@H]1C/C=C\CCCC(=O)O` [PGE2], the EC50 in experiment [1] was above 0.1 µM.

With `CCCCC[C@H](O)/C=C/[C@@H]1[C@@H](C/C=C\CCCC(=O)O)[C@@H](O)C[C@H]1O` [PGF2α], the EC50 in experiment [1] is above 0.1 µM.

Usually EC50 stands for the concentration needed to bring the measured effect to its halfway point. Higher therefore signals lower potency in that assay. Usually IC50 stands for the concentration needed to halve the response being measured.
